Experimental data as given in patent US20240325366A1, “SELECTIVE CDK9 INHIBITOR FOR THE TREATMENT OF A RAS MUTANT CANCER” (VINCERX PHARMA, INC., priority 2021, published 2024).
Read-outs that look alike come from different tables or passages of the source.

Tests used:
Format in all cases: cell-based
[1] = tested on: KRAS mutant colorectal and lung cancer cell lines; assay: in vitro cytotoxicity, MTT assay, summary; conditions: multiple KRAS mutant colorectal and lung cancer cell lines
Method: (§1) Cultivation of cells was performed according to standard procedures with the media recommended by the provider. The cells, in a total volume of 100 μL, were seeded in a 96-well plate with a white bottom (#3610). After a 24h incubation period at 37° C. and 5% CO2 the medium was exchanged by adding 90 μL fresh medium. The treatment started by adding the test compound in 10 μL of culture medium to the cells in triplicates. Concentrations ranging from 10^−6 M to 10^−13 M were chosen. The proliferation was detected using the MTT assay (ATCC). At the end of the incubation period the MTT reagent was added to all samples for 4h. Lysis of the cells followed by addition of the detergent was done overnight. The formed dye was detected at 570 nm. The proliferation of cells was defined as the 100% value.

[2] = tested on: panel of 500 tumor cell lines; assay: antiproliferative activity, panel of 500 tumor cell lines (OmniScreen)
Source text: (§2) To determine associations of genomic alterations with compound 1′ sensitivity, 458 were mapped to a cell line present in DepMap (21Q3). Of the 458 cell lines mapped, there were 440 with available mutation data in DepMap. Cell line mutation and copy number data were accessed and for mutations, the data were filtered to include variants with a “damaging” or “other non-conserving” annotation only, in order to select variants which are more likely to be functionally important. The top quartile of cell lines based on their compound 1′IC50 values were defined as groups for comparison with the bottom quartile.

SW620 = assay: in vitro cytotoxicity, MTT assay; conditions: Homo sapiens, SW-620; SW620, Colorectal, KRAS p.G12V
Method: as §1

NCI-H460 = assay: in vitro cytotoxicity, MTT assay; conditions: Homo sapiens; NCI-H460, Lung, KRAS p.Q61H
Method: as §1

HT-29 = assay: in vitro cytotoxicity, MTT assay; conditions: Homo sapiens; HT-29, Colorectal, KRAS WT
Method: as §1

MIAPaCa2 = assay: in vitro cytotoxicity, MTT assay; conditions: Homo sapiens, MIA PaCa-2; MIAPaCa2, Pancreatic, KRAS pG12C
Method: as §1

A549 = assay: in vitro cytotoxicity, MTT assay; conditions: Homo sapiens; A549, Lung, KRAS p.G12S
Method: as §1

HCT116 = assay: in vitro cytotoxicity, MTT assay; conditions: Homo sapiens, HCT-116; HCT116, Colorectal, KRAS p.G13D
Method: as §1

HCT15 = assay: in vitro cytotoxicity, MTT assay; conditions: Homo sapiens, HCT-15; HCT15, Colorectal, KRAS p.G13D
Method: as §1

COLO205 = assay: in vitro cytotoxicity, MTT assay; conditions: Homo sapiens, COLO 205; COLO205, Colorectal, KRAS WT
Method: as §1

SW480 = assay: in vitro cytotoxicity, MTT assay; conditions: Homo sapiens; SW480, Colorectal, KRAS p.G12V
Method: as §1

SW837 = assay: in vitro cytotoxicity, MTT assay; conditions: Homo sapiens; SW837, Colorectal, KRAS pG12C
Method: as §1

HCT8 = assay: in vitro cytotoxicity, MTT assay; conditions: Homo sapiens, HCT-8; HCT8, Colorectal, KRAS WT
Method: as §1

HEC-1-B = assay: antiproliferative activity (OmniScreen); conditions: Homo sapiens, Uterus, 72 hours, read-out: Absolute IC50
Source text: as §2

RBE = assay: antiproliferative activity (OmniScreen); conditions: Liver/Bile duct, 72 hours, read-out: Absolute IC50
Source text: as §2

SU-DHL-10 = assay: antiproliferative activity (OmniScreen); conditions: Homo sapiens, SU-DHL10; SU-DHL-10, Lymphoma, 72 hours; read-out: Absolute IC50
Source text: as §2

DV-90 = assay: antiproliferative activity (OmniScreen); conditions: Homo sapiens; DV-90, Lung, 72 hours; read-out: Absolute IC50
Source text: as §2

143B = assay: antiproliferative activity (OmniScreen); conditions: Homo sapiens, Bone, 72 hours, read-out: Absolute IC50
Source text: as §2

LS513 = assay: antiproliferative activity (OmniScreen); conditions: Homo sapiens, LS-513; LS513, Large intestine/Colorectum, 72 hours; read-out: Absolute IC50
Source text: as §2

CoC1/DDP = assay: antiproliferative activity (OmniScreen); conditions: Ovary, 72 hours, read-out: Absolute IC50
Source text: as §2

UM-UC-3 = assay: antiproliferative activity (OmniScreen); conditions: Homo sapiens, UMUC3; UM-UC-3, Bladder, 72 hours; read-out: Absolute IC50
Source text: as §2

Panc 05.04 = assay: antiproliferative activity (OmniScreen); conditions: Panc 05.04, Pancreas, 72 hours; read-out: Absolute IC50
Source text: as §2

NCI-H2122 = assay: antiproliferative activity (OmniScreen); conditions: Homo sapiens; NCI-H2122, Lung, 72 hours; read-out: Absolute IC50
Source text: as §2

NCI-H1944 = assay: antiproliferative activity (OmniScreen); conditions: Homo sapiens; NCI-H1944, Lung, 72 hours; read-out: Absolute IC50
Source text: as §2

Calu-6 = assay: antiproliferative activity (OmniScreen); conditions: Homo sapiens; Calu-6, Lung, 72 hours; read-out: Absolute IC50
Source text: as §2

HCC44 = assay: antiproliferative activity (OmniScreen); conditions: Homo sapiens; HCC44, Lung, 72 hours; read-out: Absolute IC50
Source text: as §2

MOLP8 = assay: antiproliferative activity (OmniScreen); conditions: Homo sapiens, MOLP-8; MOLP8, Blood/Myeloma, 72 hours; read-out: Absolute IC50
Source text: as §2

SU.86.86 = assay: antiproliferative activity (OmniScreen); conditions: Homo sapiens; SU.86.86, Pancreas, 72 hours; read-out: Absolute IC50
Source text: as §2

NCI-H358 = assay: antiproliferative activity (OmniScreen); conditions: Homo sapiens; NCI-H358, Lung, 72 hours; read-out: Absolute IC50
Source text: as §2

LCLC-97TM1 = assay: antiproliferative activity (OmniScreen); conditions: Homo sapiens; LCLC-97TM1, Lung, 72 hours; read-out: Absolute IC50
Source text: as §2

Compound: COc1cc(F)ccc1-c1cc(Nc2cc(CS(C)(=N)=O)ccn2)ncc1F (single isomer, unassigned; (+)) [Compound 1′, (+)5-fluoro-4-(4-fluoro-2-methoxyphenyl)-N-{4-[(S-methylsulfonimidoyl)methyl]pyridin-2-yl}pyridin-2-amine]
- activity against KRAS mutant cancer cell lines [1]: active
- IC50 ([2]; N=110 cell lines with mutation data in DepMap, read-out: IC50 bottom quartile (most sensitive cell lines)): ≤ 90.5 nM
- IC50 ([2]; N=130 cell lines with mutation data in DepMap, read-out: IC50 top quartile (least sensitive cell lines)): ≥ 152 nM
- IC50 ([2]; panel of 500 tumor cell lines, 72 hours of treatment, read-out: IC50 range, lower end): 28 nM
- IC50 ([2]; panel of 500 tumor cell lines, 72 hours of treatment, read-out: IC50 range, upper end): 2100 nM
- IC50 ([2]; panel of 500 tumor cell lines, 72 hours of treatment, read-out: mean IC50): 113 nM
- IC50 (SW620): > 500 nM
- IC50 (NCI-H460): 75 nM
- IC50 (HT-29): 83 nM
- IC50 (MIAPaCa2): 128 nM
- IC50 (A549): 98 nM
- IC50 (HCT116): 46 nM
- IC50 (HCT15): 33.5 nM
- IC50 (COLO205): 70 nM
- IC50 (SW480): 143 nM
- IC50 (SW837): 620 nM
- IC50 (HCT8): 83 nM
- IC50 (HEC-1-B): 67 nM
- IC50 (RBE): 72 nM
- IC50 (SU-DHL-10): 74 nM
- IC50 (DV-90): 90 nM
- IC50 (143B): 73 nM
- IC50 (LS513): 51 nM
- IC50 (CoC1/DDP): 72 nM
- IC50 (UM-UC-3): 67 nM
- IC50 (Panc 05.04): 38 nM
- IC50 (NCI-H2122): 70 nM
- IC50 (NCI-H1944): 75 nM
- IC50 (Calu-6): 39 nM
- IC50 (HCC44): 90 nM
- IC50 (MOLP8): 80 nM
- IC50 (SU.86.86): 82 nM
- IC50 (NCI-H358): 41 nM
- IC50 (LCLC-97TM1): 46 nM
